# Test results: patent publication US7993638B2, “Cancer treatment combining lymphodepleting agent with CTLs and cytokines” (Janssen Pharmaceutica NV, priority 2006, dated 2011)
# Assays:
# [1] = 0.07 mg/kg/day x 5 days monthly for 6 months, cited from earlier work
# [2] = test system: lymphocytes; settings: cited from earlier work
# [3] = test system: lymphocytes; settings: […] s.c., 5 consecutive days (total 0.7 mg/kg), hairy cell leukemia patients; cited from earlier work
# [4] = subcutaneous versus IV; cited from earlier work
# [5] = test system: class I and melanoma-associated antigen expression; test: Study 2: IHC stains of serial biopsy samples after 5-day course of IFN-alpha; assay type: in vivo, human; settings: 10 MU/m^2 s.c., five day course; serial biopsies of a single patient
# Source text: Interferon-alpha (IFN-α) has a broad spectrum of immunomodulatory and antiproliferative effects in a variety of malignancies. It is believed that one mechanism of action of IFN-α is the upregulation of tumor antigen expression on melanoma cells. It has the ability to enhance the expression of immunologically important molecules on the surface of the tumor. These include the MHC antigens, accessory molecules, as well as tumor-associated antigens.^25-27 These immunomodulatory effects may improve the activity of the immune system, including both antibodies and lymphocytes, to recognize and attack tumor cells in vivo. […] It is believed that these two modalities of immunotherapy may act synergistically. […] The same 5-day course in clinical study was included in Study 3.
# [6] = administered for 4 monthly courses
Compound,haematological toxicity ([1]; cumulative 2.1 mg/kg),"patients with mild segmental herpes zoster ([1]; 27 patients in drug arm, one case on placebo)",lymphopenia ([2]; MS patients),"time at which lymphocyte levels begin to recover [2, 6] [months]","time to lymphocyte nadir [2, 6] [months]",safety [3],pharmacokinetic and therapeutic results of subcutaneous route [4],upregulation of class I and melanoma-associated antigen expression (IHC) [5]
"Nc1nc(Cl)nc2c1ncn2[C@H]1C[C@H](O)[C@@H](CO)O1 [cladribine, 2-chloro-2′deoxy-β-D-adenosine]","no individual cases of significant thrombocytopenia, anemia granulocytopenia or generalized marrow suppression",two,observed in all patients,≤ 6,5,safe,entirely equivalent to the IV route,
IFN-α,,,,,,,,sufficient to upregulate both class I and melanoma-associated antigen expression
